One test concerns the target SST2 (Homo sapiens, UniProt P30874). Briefly: Hit Hunter cAMP XS+ assay, SST2 activation via Gi (reduction of forskolin-stimulated cAMP). In kind it is cell-based. As to conditions: for Emax: read-out: SST2 (EMax). Here is the method:
(§1) A Hit Hunter® cAMP XS+ assay was used to monitor activation of the SST2 and SST5 via the Gi G protein. Cells were pre-stimulated with forskolin to elicit a cAMP response and the potency and efficacy of somatostatin agonists to reduce cAMP was measured. Briefly cells (10,000 cells/well) were incubated (37° C.; 30 min) with compound ([…]) in media (2:1 HBSS/11 mM Hepes: cAMP XS+Ab reagent) in the presence of EC80 forskolin ([…] and 15 μM SST5). Signal was detected through incubation with 20 μL cAMP XS+ED/CL lysis cocktail ([…]; RT) followed by incubation with […] cAMP XS+EA reagent (180 min; RT). Microplates were read with a PerkinElmer Envision™ instrument for chemiluminescent signal detection.

For another test, the target named is SST5 (Homo sapiens, UniProt P35346). Briefly: Hit Hunter cAMP XS+ assay, SST5 activation via Gi (reduction of forskolin-stimulated cAMP). In kind it is cell-based. As to conditions: for Emax: read-out: SST5 (EMax); for SST5/2 Selectivity: selectivity for SST5 over SST2. The protocol:
as §1

The mark [1] stands for this setting: reduction of forskolin-stimulated cAMP, 4-parameter logistic fit, read-out: SST2 pEC50 (converted).
The mark [2] stands for this setting: reduction of forskolin-stimulated cAMP, 4-parameter logistic fit, read-out: SST5 pEC50 (converted).

Read-outs that look alike come from different tables or passages of the source. *1 amine or outer side, *2 acyl side, *3 side chain or, on linkers, in order; H or OH if unused. Where a SMILES comes first, the peptide text is derived from it. Side-chain parts run from the residue outwards. [ ]: non-standard residue; d: D form. The star is where a group is joined. Ala(piperidin-4-yl) = O=C([C@H](CC1CCN([*:3])CC1)N[*:1])[*:2]; dTrp(5-OMe) = COc1ccc2[nH]cc(C[C@@H](N)C(=O)O)c2c1; dTrp(4-Me) = Cc1cccc2[nH]cc(C[C@@H](N)C(=O)O)c12; Phe(3-Br) = N[C@@H](Cc1cccc(Br)c1)C(=O)O; Phe(3-Cl) = N[C@@H](Cc1cccc(Cl)c1)C(=O)O; Phe(3-OMe) = COc1cccc(C[C@H](N)C(=O)O)c1; Phe(4-Cl) = N[C@@H](Cc1ccc(Cl)cc1)C(=O)O; Ethylenediamine = C(CN[*:2])N[*:1]; Hyp = O=C(O)[C@@H]1C[C@@H](O)CN1; hPhe = N[C@@H](CCc1ccccc1)C(=O)O; 3Pal = N[C@@H](Cc1cccnc1)C(=O)O; Benzyl(4-Cl) = Clc1ccc(C*)cc1; Phg = N[C@H](C(=O)O)c1ccccc1; CO = O=C([*:1])[*:2]; Bn = c1ccc(C*)cc1

Chain of SST2 (P30874 whole entry): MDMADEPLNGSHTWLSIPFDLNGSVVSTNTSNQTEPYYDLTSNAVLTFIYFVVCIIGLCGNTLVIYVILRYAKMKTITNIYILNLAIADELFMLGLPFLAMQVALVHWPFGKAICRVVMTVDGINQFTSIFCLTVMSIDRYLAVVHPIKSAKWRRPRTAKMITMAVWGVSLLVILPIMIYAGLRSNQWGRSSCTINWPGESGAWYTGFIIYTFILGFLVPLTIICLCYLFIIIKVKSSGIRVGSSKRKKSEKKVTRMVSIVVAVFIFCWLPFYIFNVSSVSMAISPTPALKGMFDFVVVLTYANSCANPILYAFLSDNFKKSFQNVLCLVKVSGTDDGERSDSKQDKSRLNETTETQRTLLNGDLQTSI
Chain of SST5 (P35346 whole entry): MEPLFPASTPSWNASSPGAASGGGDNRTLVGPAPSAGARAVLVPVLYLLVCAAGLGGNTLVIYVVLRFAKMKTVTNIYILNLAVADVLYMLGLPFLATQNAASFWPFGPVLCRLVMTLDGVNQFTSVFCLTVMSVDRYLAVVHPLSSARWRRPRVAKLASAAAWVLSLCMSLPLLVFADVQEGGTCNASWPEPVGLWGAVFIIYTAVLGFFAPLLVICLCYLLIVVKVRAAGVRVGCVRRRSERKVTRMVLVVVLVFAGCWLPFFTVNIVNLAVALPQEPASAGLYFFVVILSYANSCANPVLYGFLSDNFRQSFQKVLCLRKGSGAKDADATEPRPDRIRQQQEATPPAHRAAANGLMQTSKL

For `NCCNC(=O)O[C@@H]1C[C@H]2C(=O)N[C@@H](c3ccccc3)C(=O)N[C@H](Cc3c[nH]c4ccccc34)C(=O)N[C@@H](CC3CCNCC3)C(=O)N[C@@H](Cc3ccc(OCc4ccccc4)cc3)C(=O)N[C@@H](Cc3ccccc3)C(=O)N2C1` [Example 1] (cyclo(F[Hyp]([CO-Ethylenediamine])[Phg][dW][Ala(piperidin-4-yl)]Y(Bn))), at SST2, the EC50 is 3160 nM and the Emax stood at 62%. Besides, at SST5, the EC50 was 25.1 nM, the Emax was found to be 98.6% and the “SST5/2 Selectivity” value is reported as 130.7.

Take `NCCNC(=O)O[C@@H]1C[C@H]2C(=O)N[C@@H](Cc3ccccc3)C(=O)N[C@H](Cc3c[nH]c4ccccc34)C(=O)N[C@@H](CC3CCNCC3)C(=O)N[C@@H](Cc3ccc(OCc4ccccc4)cc3)C(=O)N[C@@H](Cc3ccccc3)C(=O)N2C1` [Example 2] (cyclo(F[Hyp]([CO-Ethylenediamine])F[dW][Ala(piperidin-4-yl)]Y(Bn))): at SST2, the EC50 was 398 nM and the Emax is 96.4%. In addition, at SST5, the EC50 was 20 nM, the Emax was 105% and the “SST5/2 Selectivity” value was 21.9.

On to `NCCNC(=O)O[C@@H]1C[C@H]2C(=O)N[C@@H](CCc3ccccc3)C(=O)N[C@H](Cc3c[nH]c4ccccc34)C(=O)N[C@@H](CC3CCNCC3)C(=O)N[C@@H](Cc3ccc(OCc4ccccc4)cc3)C(=O)N[C@@H](Cc3cccnc3)C(=O)N2C1` [Example 3] (cyclo([3Pal][Hyp]([CO-Ethylenediamine])[hPhe][dW][Ala(piperidin-4-yl)]Y(Bn))), for which, at SST2, the EC50 was 200 nM and the Emax worked out at 98.4%. Further, on SST5, the EC50 is 0.794 nM, the Emax was 100% and the “SST5/2 Selectivity” value is 236.7.

As to `Cc1cccc2[nH]cc(C[C@H]3NC(=O)[C@H](c4ccccc4)NC(=O)[C@@H]4C[C@@H](OC(=O)NCCN)CN4C(=O)[C@H](Cc4ccccc4)NC(=O)[C@H](Cc4ccc(OCc5ccccc5)cc4)NC(=O)[C@H](CC4CCNCC4)NC3=O)c12` [Example 4] (cyclo(F[Hyp]([CO-Ethylenediamine])[Phg][dTrp(4-Me)][Ala(piperidin-4-yl)]Y(Bn))), at SST2, the EC50 is 251 nM and the Emax amounted to 103%. Moreover, at SST5, the EC50 is 12.6 nM, the Emax turned out to be 105% and the “SST5/2 Selectivity” value is 23.6.

For the compound `COc1ccc2[nH]cc(C[C@H]3NC(=O)[C@H](c4ccccc4)NC(=O)[C@@H]4C[C@@H](OC(=O)NCCN)CN4C(=O)[C@H](Cc4ccccc4)NC(=O)[C@H](Cc4ccc(OCc5ccccc5)cc4)NC(=O)[C@H](CC4CCNCC4)NC3=O)c2c1` [Example 5] (cyclo(F[Hyp]([CO-Ethylenediamine])[Phg][dTrp(5-OMe)][Ala(piperidin-4-yl)]Y(Bn))), the Emax at SST2 worked out at 97.6%; on SST5, 98.7%. In addition, the EC50 at SST2 (setting [1]) was 316 nM; on SST5 (setting [2]), 10 nM. The “SST5/2 Selectivity” value on SST5 is 33.8.

For the compound `NCCNC(=O)O[C@@H]1C[C@H]2C(=O)N[C@@H](c3ccccc3)C(=O)N[C@H](Cc3c[nH]c4ccccc34)C(=O)N[C@@H](CC3CCNCC3)C(=O)N[C@@H](Cc3ccc(OCc4ccc(Cl)cc4)cc3)C(=O)N[C@@H](Cc3ccccc3)C(=O)N2C1` [Example 6] (cyclo(F[Hyp]([CO-Ethylenediamine])[Phg][dW][Ala(piperidin-4-yl)]Y(Benzyl(4-Cl)))), the Emax on SST2 and on SST5 was 97.9% in each case. Besides, the EC50 at SST2 (setting [1]) is 50.1 nM; on SST5 (setting [2]), 1.26 nM. Further, the “SST5/2 Selectivity” value on SST5 was found to be 41.9.

Regarding `NCCNC(=O)O[C@@H]1C[C@H]2C(=O)N[C@@H](c3ccccc3)C(=O)N[C@H](Cc3c[nH]c4ccccc34)C(=O)N[C@@H](CC3CCNCC3)C(=O)N[C@@H](Cc3ccc(OCc4ccccc4)cc3)C(=O)N[C@@H](Cc3cccc(Cl)c3)C(=O)N2C1` [Example 7] (cyclo([Hyp]([CO-Ethylenediamine])[Phg][dW][Ala(piperidin-4-yl)]Y(Bn)[Phe(3-Cl)])), the Emax at SST2 was found to be 99.2%; at SST5, 102%. Also, the EC50 on SST2 (setting [1]) is 10 nM; at SST5 (setting [2]), 0.501 nM. The “SST5/2 Selectivity” value on SST5 is listed as 19.3.

For `NCCNC(=O)O[C@@H]1C[C@H]2C(=O)N[C@@H](c3ccccc3)C(=O)N[C@H](Cc3c[nH]c4ccccc34)C(=O)N[C@@H](CC3CCNCC3)C(=O)N[C@@H](Cc3ccc(OCc4ccccc4)cc3)C(=O)N[C@@H](Cc3ccc(Cl)cc3)C(=O)N2C1` [Example 8] (cyclo([Hyp]([CO-Ethylenediamine])[Phg][dW][Ala(piperidin-4-yl)]Y(Bn)[Phe(4-Cl)])), the values for the Emax on SST2 and on SST5 were 101% and 102%, respectively. The EC50 is 31.6 nM on SST2 (setting [1]) and 1.26 nM at SST5 (setting [2]). Moreover, at SST5, the “SST5/2 Selectivity” value is listed as 22.7.

For `COc1ccc(C[C@@H]2NC(=O)[C@H](Cc3ccc(OCc4ccccc4)cc3)NC(=O)[C@H](CC3CCNCC3)NC(=O)[C@@H](Cc3c[nH]c4ccccc34)NC(=O)[C@H](c3ccccc3)NC(=O)[C@@H]3C[C@@H](OC(=O)NCCN)CN3C2=O)cc1` [Example 9] (cyclo([Hyp]([CO-Ethylenediamine])[Phg][dW][Ala(piperidin-4-yl)]Y(Bn)Y(Me))), the results for the Emax at SST2 and at SST5 were 102% and 106%, respectively. In addition, the EC50 at SST2 (setting [1]) was 50.1 nM; at SST5 (setting [2]), 2.51 nM. Besides, the “SST5/2 Selectivity” value at SST5 amounted to 23.3.

Consider `NCCNC(=O)O[C@@H]1C[C@H]2C(=O)N[C@@H](c3ccccc3)C(=O)N[C@H](Cc3c[nH]c4ccccc34)C(=O)N[C@@H](CC3CCNCC3)C(=O)N[C@@H](Cc3ccc(OCc4ccccc4)cc3)C(=O)N[C@@H](Cc3cccc(Br)c3)C(=O)N2C1` [Example 10] (cyclo([Hyp]([CO-Ethylenediamine])[Phg][dW][Ala(piperidin-4-yl)]Y(Bn)[Phe(3-Br)])), for which the figures for the Emax at SST2 and at SST5 were 101% and 98%, respectively. Further, the values for the EC50 at SST2 (setting [1]) and on SST5 (setting [2]) were 20 nM and 0.501 nM, respectively. Besides, the “SST5/2 Selectivity” value on SST5 is listed as 38.9.

As for `NCCNC(=O)O[C@@H]1C[C@H]2C(=O)N[C@@H](c3ccccc3)C(=O)N[C@H](Cc3c[nH]c4ccccc34)C(=O)N[C@@H](CC3CCNCC3)C(=O)N[C@@H](Cc3ccc(OCc4ccccc4)cc3)C(=O)N[C@@H](Cc3cccnc3)C(=O)N2C1` [Example 11] (cyclo([3Pal][Hyp]([CO-Ethylenediamine])[Phg][dW][Ala(piperidin-4-yl)]Y(Bn))), the Emax at SST2 is 98%; at SST5, 99.4%. Besides, the figures for the EC50 at SST2 (setting [1]) and on SST5 (setting [2]) were 200 nM and 3.98 nM, respectively. In addition, the “SST5/2 Selectivity” value at SST5 stood at 48.2.

Turning to `COc1cccc(C[C@@H]2NC(=O)[C@H](Cc3ccc(OCc4ccccc4)cc3)NC(=O)[C@H](CC3CCNCC3)NC(=O)[C@@H](Cc3c[nH]c4ccccc34)NC(=O)[C@H](c3ccccc3)NC(=O)[C@@H]3C[C@@H](OC(=O)NCCN)CN3C2=O)c1` [Example 12] (cyclo([Hyp]([CO-Ethylenediamine])[Phg][dW][Ala(piperidin-4-yl)]Y(Bn)[Phe(3-OMe)])), the Emax at SST2 came to 97.6%; at SST5, 98.1%. The EC50 on SST2 (setting [1]) was 20 nM; on SST5 (setting [2]), 0.794 nM. For the same compound, the “SST5/2 Selectivity” value at SST5 came to 26.1.

Take `C[C@@H](O)[C@@H]1NC(=O)[C@H](CCCCN)NC(=O)[C@@H](Cc2c[nH]c3ccccc23)NC(=O)[C@H](Cc2ccccc2)NC(=O)[C@@H](NC(=O)[C@H](N)Cc2ccccc2)CSSC[C@@H](C(=O)N[C@H](CO)[C@@H](C)O)NC1=O` [Octreotide]: at SST2, the Emax was 98.5%.

For the origin of these results see patent US11987648B2, “Cyclohexapeptides as selective somatostatin SST5 receptor agonists” (Heptares Therapeutics Limited, priority 2018, dated 2024).
